Reference: PubChem BioAssay AID274 (DTP/NCI, 2004)
Values joined by “and” are separate entries in the source; they are usually repeats but may differ in a detail not shown here. Equal entries are not always repeated. Inconclusive results and toxic doses are left out.

Tested on: BDF1 mice, Lewis lung carcinoma iv, survival T/C
Test: NCI In Vivo Anticancer Drug Screen. Data for tumor model Lewis Lung Carcinoma (intravenous) in B6D2F1 (BDF1) mice
Conditions: endpoint: median survival time, higher = longer survival
Description: The antitumor activity of compounds was measured in mice bearing transplantable tumors. Survival or tumor size were measured and the results are expressed as the measurement made in the treated group (T) divided by the measurement made in the vehicle treated control group (C). The tumor model used in this assay is Lewis Lung Carcinoma (intravenous) in B6D2F1 (BDF1) mice

[1] = dose: 2.0 mg/kg/injection, schedule: Q01DX009 (ip), vehicle: saline
[2] = dose: 4.0 mg/kg/injection, schedule: Q01DX009 (ip), vehicle: saline
[3] = dose: 16.0 mg/kg/injection, schedule: Q01DX009 (ip), vehicle: saline
[4] = dose: 32.0 mg/kg/injection, schedule: Q01DX009 (ip), vehicle: saline
[5] = dose: 6.25 mg/kg/injection, schedule: Q01DX009 (ip), vehicle: saline
[6] = dose: 50.0 mg/kg/injection, schedule: Q01DX009 (ip), vehicle: saline with Tween-80
[7] = dose: 100.0 mg/kg/injection, schedule: Q01DX009 (ip), vehicle: saline with Tween-80
[8] = dose: 200.0 mg/kg/injection, schedule: Q01DX009 (ip), vehicle: saline with Tween-80
[9] = dose: 12.5 mg/kg/injection, schedule: Q01DX009 (ip), vehicle: saline
[10] = dose: 25.0 mg/kg/injection, schedule: Q01DX009 (ip), vehicle: saline
[11] = dose: 50.0 mg/kg/injection, schedule: Q01DX009 (ip), vehicle: saline
[12] = dose: 100.0 mg/kg/injection, schedule: Q01DX009 (ip), vehicle: saline
[13] = dose: 200.0 mg/kg/injection, schedule: Q01DX009 (ip), vehicle: saline
[14] = dose: 0.5 mg/kg/injection, schedule: Q01DX009 (ip), vehicle: saline
[15] = dose: 1.0 mg/kg/injection, schedule: Q01DX009 (ip), vehicle: saline

**Q.** What does the source list for O=c1[nH]cc(F)c(=O)[nH]1?
**A.** T/C [1]: 106 % of control; T/C (dose: 2.5 mg/kg/injection, schedule: Q01DX009 (ip), vehicle: saline): 108 % of control; T/C [2]: 110 % of control; T/C (dose: 5.0 mg/kg/injection, schedule: Q01DX009 (ip), vehicle: saline): 116 % of control; T/C (dose: 7.5 mg/kg/injection, schedule: Q04DX003 (ip), vehicle: saline): 96 % of control (2×) and 110 % of control; T/C (dose: 8.0 mg/kg/injection, schedule: Q01DX009 (ip), vehicle: saline): 112 % of control; T/C (dose: 9.8 mg/kg/injection, schedule: Q01DX009 (ip), vehicle: saline): 122 % of control; T/C (dose: 10.0 mg/kg/injection, schedule: Q01DX009 (ip), vehicle: saline): 104 % of control and 109 % of control and 122 % of control; T/C (dose: 13.2 mg/kg/injection, schedule: Q04DX006 (ip), vehicle: saline): 104 % of control; T/C (dose: 14.0 mg/kg/injection, schedule: Q01DX009 (ip), vehicle: saline): 163 % of control; T/C (dose: 14.0 mg/kg/injection, schedule: Q01DX022 (ip), vehicle: saline): 193 % of control; T/C (dose: 15.0 mg/kg/injection, schedule: Q04DX003 (ip), vehicle: saline): 105 % of control and 110 % of control (2×); T/C [3]: 107 % of control; T/C (dose: 28.6 mg/kg/injection, schedule: Q01DX009 (ip), vehicle: saline): 109 % of control; T/C [4]: 122 % of control; T/C (dose: 40.9 mg/kg/injection, schedule: Q01DX009 (ip), vehicle: saline): 109 % of control; T/C (dose: 60.0 mg/kg/injection, schedule: Q04DX003 (ip), vehicle: saline): 150 % of control

**Q.** Which T/C (dose: 12.5 mg/kg/injection, schedule: Q01DX009 (ip), vehicle: distilled water + Tween-80) does the source give for CN1C(=O)NC(c2ccc(Cl)cc2)(c2ccc(Cl)cc2)C1=O here?
**A.** 102 % of control

**Q.** What about the T/C (dose: 25.0 mg/kg/injection, schedule: Q01DX009 (ip), vehicle: distilled water + Tween-80) of the same compound?
**A.** 124 % of control

**Q.** What about the T/C (dose: 50.0 mg/kg/injection, schedule: Q01DX009 (ip), vehicle: distilled water + Tween-80) of the same compound?
**A.** 116 % of control

**Q.** What about the T/C (dose: 200.0 mg/kg/injection, schedule: Q01DX009 (ip), vehicle: distilled water + Tween-80) of the same compound?
**A.** 105 % of control

**Q.** For C=C1C(C)C2C(Cc3ccccc3)NC(=O)C23C(OC(C)=O)/C=C/C(C)(O)CC(C)C/C=C/C3C1O (stereo unspecified), which T/C (dose: 0.37 mg/kg/injection, schedule: Q01DX009 (ip), vehicle: Klucel (hydroxypropylcellulose) (HPC)) is on record?
**A.** 93 % of control

**Q.** And the T/C (dose: 0.38 mg/kg/injection, schedule: Q01DX009 (ip), vehicle: Klucel (hydroxypropylcellulose) (HPC))?
**A.** 107 % of control

**Q.** And the T/C (dose: 0.75 mg/kg/injection, schedule: Q01DX009 (ip), vehicle: Klucel (hydroxypropylcellulose) (HPC))?
**A.** 102 % of control

**Q.** What about the T/C (dose: 1.5 mg/kg/injection, schedule: Q01DX009 (ip), vehicle: Klucel (hydroxypropylcellulose) (HPC)) of the same compound?
**A.** 96 % of control and 105 % of control

**Q.** What about the T/C (dose: 3.0 mg/kg/injection, schedule: Q01DX009 (ip), vehicle: Klucel (hydroxypropylcellulose) (HPC)) of the same compound?
**A.** 104 % of control and 106 % of control

**Q.** And the T/C (dose: 6.0 mg/kg/injection, schedule: Q01DX009 (ip), vehicle: Klucel (hydroxypropylcellulose) (HPC))?
**A.** 101 % of control and 110 % of control

**Q.** What about the T/C (dose: 12.0 mg/kg/injection, schedule: Q01DX009 (ip), vehicle: Klucel (hydroxypropylcellulose) (HPC)) of the same compound?
**A.** 109 % of control

**Q.** Which results are given for O=S(=O)(O)O.[NH-]C1CCCCC1[NH-].[Pt+2] (stereo unspecified)?
**A.** T/C (dose: 0.63 mg/kg/injection, schedule: Q01DX009 (ip), vehicle: dextrose): 101 % of control; T/C (dose: 1.25 mg/kg/injection, schedule: Q01DX009 (ip), vehicle: dextrose): 110 % of control

**Q.** Which results are given for CSCCC(N)C(=O)O (stereo unspecified)?
**A.** T/C (dose: 18.75 mg/kg/injection, schedule: Q01DX009 (ip), vehicle: saline with Tween-80): 101 % of control; T/C (dose: 37.5 mg/kg/injection, schedule: Q01DX009 (ip), vehicle: saline with Tween-80): 93 % of control; T/C (dose: 40.0 mg/kg/injection, schedule: Q01DX009 (ip), vehicle: saline with Tween-80): 100 % of control; T/C (dose: 75.0 mg/kg/injection, schedule: Q01DX009 (ip), vehicle: saline with Tween-80): 101 % of control; T/C (dose: 80.0 mg/kg/injection, schedule: Q01DX009 (ip), vehicle: saline with Tween-80): 97 % of control; T/C (dose: 150.0 mg/kg/injection, schedule: Q01DX009 (ip), vehicle: saline with Tween-80): 91 % of control; T/C (dose: 160.0 mg/kg/injection, schedule: Q01DX009 (ip), vehicle: saline with Tween-80): 95 % of control; T/C (dose: 320.0 mg/kg/injection, schedule: Q01DX009 (ip), vehicle: saline with Tween-80): 100 % of control

**Q.** What does the source list for CCS(=O)(=O)OCCCCOS(=O)(=O)CC?
**A.** T/C (dose: 3.13 mg/kg/injection, schedule: Q01DX009 (ip), vehicle: saline): 99 % of control; T/C [5]: 103 % of control

**Q.** Which T/C [6] does the source give for Nc1nc(N)c(N=O)c(Nc2ccc(I)cc2)n1 here?
**A.** 97 % of control

**Q.** And the T/C [7]?
**A.** 95 % of control

**Q.** And the T/C [8]?
**A.** 95 % of control

**Q.** Which results are given for O=C(/C=C(\Cl)C(=O)NO)NO?
**A.** T/C [5]: 124 % of control; T/C [9]: 105 % of control; T/C [10]: 105 % of control; T/C [11]: 110 % of control; T/C [12]: 115 % of control; T/C [13]: 104 % of control

**Q.** Which T/C (dose: 25.0 mg/kg/injection, schedule: Q01DX009 (ip), vehicle: water) does the source give for O=C(NO)c1ccc(O)c(O)c1 here?
**A.** 100 % of control

**Q.** And the T/C (dose: 50.0 mg/kg/injection, schedule: Q01DX009 (ip), vehicle: water)?
**A.** 100 % of control

**Q.** And the T/C (dose: 100.0 mg/kg/injection, schedule: Q01DX009 (ip), vehicle: water)?
**A.** 100 % of control

**Q.** And the T/C (dose: 200.0 mg/kg/injection, schedule: Q01DX009 (ip), vehicle: water)?
**A.** 108 % of control

**Q.** And the T/C (dose: 300.0 mg/kg/injection, schedule: Q01DX009 (ip), vehicle: suspension in saline)?
**A.** 117 % of control

**Q.** What about the T/C (dose: 400.0 mg/kg/injection, schedule: Q01DX009 (ip), vehicle: suspension in saline) of the same compound?
**A.** 114 % of control

**Q.** And the T/C (dose: 500.0 mg/kg/injection, schedule: Q01DX009 (ip), vehicle: suspension in saline)?
**A.** 122 % of control

**Q.** What does the source list for N[C@H](C(=O)O)[C@@H]1CC(Cl)=NO1?
**A.** T/C [14]: 124 % of control; T/C [15]: 103 % of control; T/C [1]: 111 % of control; T/C [2]: 115 % of control

**Q.** Which T/C (dose: 0.09 mg/kg/injection, schedule: Q01DX009 (ip), vehicle: saline) does the source give for CN(C)C(=O)c1cccc(COc2ccc(N3C(N)=NC(N)=NC3(C)C)cc2Cl)c1 here?
**A.** 95 % of control

**Q.** What about the T/C (dose: 0.19 mg/kg/injection, schedule: Q01DX009 (ip), vehicle: saline) of the same compound?
**A.** 108 % of control

**Q.** And the T/C (dose: 0.39 mg/kg/injection, schedule: Q01DX009 (ip), vehicle: saline)?
**A.** 95 % of control

**Q.** And the T/C (dose: 0.78 mg/kg/injection, schedule: Q01DX009 (ip), vehicle: saline)?
**A.** 101 % of control

**Q.** And the T/C (dose: 1.56 mg/kg/injection, schedule: Q01DX009 (ip), vehicle: saline)?
**A.** 92 % of control

**Q.** What about the T/C (dose: 3.12 mg/kg/injection, schedule: Q01DX009 (ip), vehicle: saline) of the same compound?
**A.** 118 % of control

**Q.** C=CC(=O)NCNC(=O)C=C was tested. Which T/C [5] did it give?
**A.** 90 % of control

**Q.** What about the T/C [9] of the same compound?
**A.** 102 % of control and 113 % of control

**Q.** What about the T/C [10] of the same compound?
**A.** 98 % of control and 104 % of control

**Q.** And the T/C [11]?
**A.** 97 % of control and 98 % of control

**Q.** What about the T/C [12] of the same compound?
**A.** 101 % of control and 110 % of control

**Q.** For Nc1ccn(C2OC(COP(=O)(O)O)C(O)C2O)c(=O)n1 (stereo unspecified), which T/C [3] is on record?
**A.** 121 % of control

**Q.** And the T/C [4]?
**A.** 106 % of control

**Q.** With CC(=O)OCc1ncccc1OC(C)=O as the compound, how does the T/C [10] read?
**A.** 97 % of control

**Q.** And the T/C [11]?
**A.** 100 % of control

**Q.** What about the T/C [12] of the same compound?
**A.** 101 % of control

**Q.** What about the T/C [13] of the same compound?
**A.** 104 % of control

**Q.** With CC1CN1CC(O)C(O)CN1CC1C (stereo unspecified) as the compound, how does the T/C (dose: 0.25 mg/kg/injection, schedule: Q01DX009 (ip), vehicle: saline) read?
**A.** 99 % of control

**Q.** What about the T/C [14] of the same compound?
**A.** 111 % of control and 116 % of control

**Q.** What about the T/C [15] of the same compound?
**A.** 121 % of control and 116 % of control

**Q.** And the T/C [1]?
**A.** 123 % of control

**Q.** CCCC(=O)Oc1ccc(/C=N/NC(N)=S)nc1 was tested. Which T/C (dose: 12.5 mg/kg/injection, schedule: Q01DX009 (ip), vehicle: saline with Tween-80) did it give?
**A.** 104 % of control and 109 % of control

**Q.** What about the T/C (dose: 25.0 mg/kg/injection, schedule: Q01DX009 (ip), vehicle: saline with Tween-80) of the same compound?
**A.** 109 % of control

**Q.** What about the T/C [6] of the same compound?
**A.** 96 % of control and 109 % of control

**Q.** What about the T/C [7] of the same compound?
**A.** 97 % of control and 104 % of control

**Q.** What about the T/C [8] of the same compound?
**A.** 120 % of control
